Adhesion to fibronectin and P-ERK level data for 2 substances are collected here from patent US20100249184A1, “INDUCTION AND/OR MAINTENANCE OF TUMOR DORMANCY BY DISRUPTION OF UROKINASE PLASMINOGEN ACTIVATOR RECEPTOR-INTEGRIN INTERACTION” (MOUNT SINAI SCHOOL OF MEDICINE, priority 2007, published 2010).

One assay has as its system HEK293 cells. As to the kind of experiment: Adhesion assay to fibronectin, transfected HEK293 cells. The conditions noted are these: HEK293-uPAR^wt cells; peptide 20 or 200 μM, 15 min. It is filed as cell-based. How it is done: HEK293 cells transiently transfected with pcDNA3.1, or expression constructs for uPAR^wt or uPAR^S245A were detached 40 hrs after transfection and 1.5×10^5 cells were seeded on fibronectin (4 μg/ml in a 48-well plate) for 15 and 30 min at 37° C. Cell adhesion was quantified as described in the Examples. The results shown are mean (SD) of 2 individual experiments, 4 determinations for each cell type. Two additional experiments were performed with similar results. […] The cells were divided into 2 aliquots and one aliquot was incubated for 10 min with anti-uPAR(R^2) antibody (10 μg/ml). Cells (1.2×10^5) were seeded onto wells of a 48-well plate and the adhesion to fibronectin tested as in FIG. 4A. The results are mean (SD) of 6 determinations. […] Cells were seeded onto 96-well plates and adhesion to fibronectin tested as in FIG. 4A. The results are mean (SD) of 3 determinations for each peptide. The experiment was repeated twice.
HEK293 cells were transiently transfected with pcDNA3.1, uPAR^wt, or uPAR^S245A. […] Following 15 and 30 min incubation at 37° C., the cells were washed twice with PBS with CaCl2 and MgCl2, fixed with 1% glutaraldehyde, stained with 1% crystal violet for 10 min, washed, dried, destained with 10% methanol and 5% acetic acid, and the OD of the extracted dye was measured in triplicate using the ELISA microplate-reader ELX800 from Bio-Tek Instruments. […]

Another assay has as its system T-HEp3 cells. As to the kind of experiment: P-ERK/ERK Western blotting after peptide treatment. It is filed as cell-based, human. The source says: FIGS. 6A-E show ERK activation and growth in vivo. In FIG. 6A, HEK293 and D-Hep3 cells transfected with uPAR^wt produces stronger activation of ERK than cells transfected with uPAR^S245A or with vector (top and middle panels); HEK293, and D-HEp3 cells, transiently transfected with pcDNA3.1 vector, or with an expression construct for uPAR^wt or uPAR^S245A lysed 48 hrs later and analyzed by Western blotting for phospho-ERK (FIG. 6A, top panels) and ERK 1/2 (FIG. 6A, middle panels) with specific antibodies. The bands were scanned with NIH Image and plotted. The ratio of phospho-ERK to ERK was calculated and expressed as a fraction of the ratio of pcDNA3.1 transfected cells. In FIG. 6A (bottom panels), uPAR^wt and uPAR^S245A expression was determined by Western blotting. […] D-HEp3 cells transfected with vector, or uPAR^wt or uPAR^S245A were detached with EDTA 36 hrs after transfection and 7×10^5 cells in 30 μl PBS were inoculated onto chorioallantoic membranes (“CAMs”) of 10-day old chick embryos. Each sample was inoculated onto 4 CAMs. The CAMs were excised 4 days later and the number of tumor cells was determined as in the Examples. The bars show mean and standard deviation. Paired t-test vector/uPAR^S245A p=0.76, vector/uPAR^wt p=0.0005, uPAR^S245/uPAR^wt p=0.0002. Inset: uPAR expression detected by Western blot with R2 antibody. In FIG. 6C, peptide 240-248, but not peptide 17-24, down regulates P-ERK level. T-HEp3 cells were serum-starved and treated in serum-free medium with 25 μM of peptides 240-248 and 17-24 for 45 min and 3 hrs. The cells were lysed and the lysates were analyzed for P-ERK (FIG. 6C, upper panel) and total ERK (FIG. 6C, lower panel) by Western blotting. FIG. 6D is a graph showing that S245A mutant peptide has no effect on ERK activation. T-HEp3 cells were treated with 5, 20, and 40 μM peptides 240-248 ([…]), 17-24 (▪), and S245A (▾) for 1 hr. The cells were processed as in FIG. 6C, except that the bands were scanned by NIH Image the P-ERK/ERK ratio was calculated. […] Sub-confluent T-ELK:GFP cells grown in 48-well plate and serum-starved overnight were incubated with the uPAR peptides 240-248 at 5 and 25 μM and with 17-24 peptide at 25 μM for 40 hrs at 37° C. in serum-free medium. The cells were detached and analyzed for GFP in FACS Canto using FACSDiva software. The numbers represent GFP-positive cells as percent of total. The dose-response for peptide 240-248 and highest concentration of peptides 17-24 and S245A were repeated two additional times with similar results.
To test the effect of uPAR/integrin inhibiting peptides on ERK activity, T-HEp3 cells transfected with two plasmids that report through GFP level on the state of ERK activation and designated T-ELK (Aguirre-Ghiso et al., Cancer Res. 63:1684-1695 (2003), which is hereby incorporated by reference in its entirety) were plated in 48-well plates, serum-starved overnight, and treated (in duplicates) with 5 and 25 μM of uPAR-derived synthetic peptides (240-248) or 25 μM (17-24) in DMEM for 42 hrs. Untreated cells served as positive control and cells not expressing GFP as negative control. The cells were detached and analyzed for GFP by FACS analysis using FACS Canto (Becton Dickinson, Calif.) and FACSDiva software. Alternatively, T-HEp3 cells, serum-starved overnight were incubated in serum-free medium with 5, 20, and 40 μM of uPAR-derived synthetic peptide 240-248, 17-24, or S245A for 1 hr or with 25 μM peptide 240-248 and 17-24 for 10 min, 45 min, and 3 hrs at 37° C. The cells were lysed in RIPA buffer and processed as described above. Concentration dependence of P-ERK inhibition was analyzed by scanning P-ERK and ERK bands with NIH-Image and expressing their ratios as % of the ratio in untreated control (T-HEp3) cells.

The mark [1] stands for this setting: 25 μM peptide, 45 and 180 min, serum-starved.
[2] abbreviates: 25 μM peptide, 10 min, serum-starved.

As to “peptide 17-24: synthetic uPAR-derived peptide, domain I amino acid 17-24: CALGQDLC (SEQ ID NO:5); negative control [reference compound]”, the adhesion to fibronectin entry in the assay with HEK293 cells was “no effect”. Further, the P-ERK level entry with T-HEp3 cells (setting [1]) was “minimal or no effect”; in the assay with T-HEp3 cells (setting [2]) it was “only a minor effect”; in the assay with T-HEp3 cells (5, 20 and 40 μM peptide, 1 hr), “minor and inconsistent effects”.

As for “peptide 240-248: synthetic uPAR-derived peptide, domain III residues 240-248: GCATASMCQ (SEQ ID NO:9)”, the adhesion to fibronectin entry with HEK293 cells is recorded as “reduced adhesion to fibronectin”. Besides, the P-ERK level result in the assay on T-HEp3 cells (setting [1]) is recorded as “strong reduction in P-ERK level”; in the assay on T-HEp3 cells (setting [2]), “only a minor effect”; in the assay on T-HEp3 cells (5, 20 and 40 μM peptide, 1 hr), “reduced P-ERK level in a dose-dependent fashion”.
